Source: patent publication US11505560B2, “Heterobifunctional compounds with improved specificity” (DANA-FARBER CANCER INSTITUTE, INC., priority 2017, dated 2022)
Entries after “also recorded” stand apart in the source; their conditions may differ.

system: BRD2BD1, BRD2BD2, BRD3BD1, BRD3BD2, BRD4BD1, BRD4BD2 GFP constructs; assay: Cellular imaging-based degradation assay (bromodomain-GFP with mCherry reporter); assay type: cell-based, human; conditions: 5 h incubation, cellular imaging
Description: Cells stably expressing bromodomain-GFP with mCherry reporter were seeded at 30-50% confluency in 384 well plates (3764, Corning) with 50 μL FluoroBrite DMEM media (Gibco, A18967) containing 10% FBS per well a day before compound treatment. Compounds (see Figure legends) were dispensed using D300e Digital Dispenser (HP) normalized to 0.5% DMSO and incubated with cells for 5 h. The assay plate was imaged immediately using Acumen eX3/HCl (TTPLabtech) High Content Imager with 488 nm and 561 nm lasers in 2 μm×1 μm grid per well format. The resulting images were analyzed using CellProfiler™ (Carpenter, et al., GenomeBiology 7:r100 (2006)). A series of image analysis steps (‘image analysis pipeline’) was constructed.
The CellProfiler™ pipeline steps are briefly outlined here. First, the red and green channels were aligned and cropped to target the middle of each well (to avoid analysis of heavily clumped cells at the edges), and a background illumination function was calculated for both red and green channels of each well individually and subtracted to correct for illumination variations across the 384-well plate from various sources of error. An additional step was then applied to the green channel to suppress the analysis of large auto fluorescent artifacts and enhance the analysis of cell specific fluorescence by way of selecting for objects under a given size, 30 A.U., and with a given shape, speckles. mCherry-positive cells were then identified in the red channel filtering for objects between 8-60 pixels in diameter and using intensity to distinguish between clumped objects. The green channel was then segmented into GFP positive and negative areas and objects were labeled as GFP positive if at least 40% of it overlapped with a GFP positive area. The fraction of GFP-positive cells/mCherry-positive cells (GFP/mCherry ratio) in each well was then calculated, and the green and red images were rescaled for visualization. The GFP/mCherry ratio was normalized to DMSO and analyzed in GraphPad Prism 7.

Row | SMILES | bromodomain degradation activity and selectivity (in words) | BRD3/BRD4 selective degradation observed
1 | COC(=O)C[C@@H]1N=C(c2ccc(Cl)cc2)c2c(sc(C(=O)NCCCCCNc3cc(F)cc4c3CN(C3CCC(=O)NC3=O)C4=O)c2C)-n2c(C)nnc21 (stereo partly drawn) [BJG-01-174, Methyl 2-((6S)-4-(4-chlorophenyl)-2-((5-((2-(2,6-dioxopiperidin-3-yl)-6-fluoro-1-oxoisoindolin-4-yl)amino)pentyl)carbamoyl)-3,9-dimethyl-6H-thieno[3,2-f][1,2,4]triazolo[4,3-a][1,4]diazepin-6-yl)acetate] | inactive degrader | –
2 | COC(=O)C[C@@H]1N=C(c2ccc(Cl)cc2)c2c(sc(C(=O)NCCCCCOc3cccc4c3C(=O)N(C3CCC(=O)NC3=O)C4=O)c2C)-n2c(C)nnc21 (stereo partly drawn) [BJG-02-030, Methyl 2-((6S)-4-(4-chlorophenyl)-2-((5-((2-(2,6-dioxopiperidin-3-yl)-1,3-dioxoisoindolin-4-yl)oxy)pentyl)carbamoyl)-3,9-dimethyl-6H-thieno[3,2-f][1,2,4]triazolo[4,3-a][1,4]diazepin-6-yl)acetate] | maintained BRD4BD1 degradation selectivity, with reduced activity | –
3 | COC(=O)C[C@@H]1N=C(c2ccc(Cl)cc2)c2c(sc(C(=O)NCCCCCNc3ccc(F)c4c3C(=O)N(C3CCC(=O)NC3=O)C4=O)c2C)-n2c(C)nnc21 (stereo partly drawn) [BJG-02-119, Methyl 2-((6S)-4-(4-chlorophenyl)-2-((5-((2-(2,6-dioxopiperidin-3-yl)-7-fluoro-1,3-dioxoisoindolin-4-yl)amino)pentyl)carbamoyl)-3,9-dimethyl-6H-thieno[3,2f][1,2,4]triazolo[4,3-a][1,4]diazepin-6-yl)acetate] | maintaining selectivity, with reduced activity as compared to ZXH-3-26 | –
4 | COC(=O)C[C@@H]1N=C(c2ccc(Cl)cc2)c2c(sc(C(=O)NCCNc3ccc4c(c3)C(=O)N(C3CCC(=O)NC3=O)C4=O)c2C)-n2c(C)nnc21 (stereo partly drawn) [ZXH-3-28] | inactive molecule | –
5 | COC(=O)C[C@@H]1N=C(c2ccc(Cl)cc2)c2c(sc(C(=O)NCCCc3cccc4c3C(=O)N(C3CCC(=O)NC3=O)C4=O)c2C)-n2c(C)nnc21 (stereo partly drawn) [ZXH-3-52] | – | BRD3/BRD4 selective degraders

system: BRD2BD1, BRD2BD2, BRD3BD1, BRD3BD2, BRD4BD1, BRD4BD2 EGFP constructs; assay: EGFP/mCherry reporter assay on individual BET bromodomains (flow cytometry); assay type: cell-based, human; conditions: BRD2/3/4 BD1 and BD2
Description: IKZF1A, BRD2BD1, BRD2BD2, BRD3BD1, BRD3BD2, BRD4BD1, and BRD4BD2 were subcloned into mammalian pcDNA5/FRT Vector (Ampicillin and Hygromycin B resistant) modified to contain MCS-eGFP-P2A-mCherry. […] Following 2-3 passage cycle FACS (FACSAria II, BD) was used to enrich for cells expressing eGFP and mCherry.
Signal from 5000 cells per well was acquired in singlicate or duplicate and the eGFP and mCherry florescence monitored. Data was analyzed using FlowJo (FlowJo, LCC). […] The eGFP protein abundance relative to mCherry was then quantified as a ten-fold amplified ratio for each individual cell using the formula: 10×eGFP/mCherry. The median of the ratio was then calculated per set, normalized to the median of the DMSO ratio, and is denoted as relative abundance. Standard deviation is calculated from four replicates (n=4) unless described otherwise.

Row | SMILES | selectivity of degradation across BET bromodomains (in words)
6 | Cc1ncsc1-c1ccc(CNC(=O)[C@@H]2C[C@@H](O)CN2C(=O)[C@@H](NC(=O)COCCOCCOCCNC(=O)C[C@@H]2N=C(c3ccc(Cl)cc3)c3c(sc(C)c3C)-n3c(C)nnc32)C(C)(C)C)cc1 [MZ1, reference compound] | activity on most bromodomains
7 | COC(=O)C[C@@H]1N=C(c2ccc(Cl)cc2)c2c(sc(C(=O)NCCCCNc3cccc4c3C(=O)N(C3CCC(=O)NC3=O)C4=O)c2C)-n2c(C)nnc21 (stereo partly drawn) [ZXH-2-184] | selectively targets BRD4 for degradation and spares BRD2 and BRD3; also recorded: selective degradation of BRD4
8 | COC(=O)C[C@@H]1N=C(c2ccc(Cl)cc2)c2c(sc(C(=O)NCCNc3cccc4c3C(=O)N(C3CCC(=O)NC3=O)C4=O)c2C)-n2c(C)nnc21 (stereo partly drawn) [ZXH-3-27] | lack of selective degradation of BRD4
9 | COC(=O)C[C@@H]1N=C(c2ccc(Cl)cc2)c2c(sc(C(=O)NCCCCCCc3cccc4c3C(=O)N(C3CCC(=O)NC3=O)C4=O)c2C)-n2c(C)nnc21 (stereo partly drawn) [ZXH-3-82] | selectively targets BRD4 for degradation and spares BRD2 and BRD3
